Assay results from patent US4608381A, “Antiinflammatory 2-(trifluoroethylsulfonyl)benzimidazoles” (Boehringer Ingelheim Pharmaceuticals, Inc., priority 1985, dated 1986).

Columns and labels:
[1] = test system: male CD rats; assay: Adjuvant-Induced Developing Arthritis Assay; assay type: in vivo; details: Rattus norvegicus, po, 336 h, 14 days from adjuvant injection, non-injected hind paw volume; for inhibition in vivo at 25 mg/kg: 25 mg/kg orally once daily; for inhibition in vivo at 50 mg/kg: 50 mg/kg orally once daily
Text: This assay is used to determine the ability of compounds to affect the immunological processes involved in the induction and development of arthritis and represents a standard model for which there is good correlation with human efficacy. It is described and discussed in Newbould, B. B., Chemotherapy of Arthritis Induced in Rats by Mycobacterial Adjuvant., Brit. J. Pharmacol. 21:127-136 (1963) and Federation Proceedings, Models Used for the Study and Therapy of Rheumatoid Arthritis - Symposium of the American Society for Pharmacology and Experimental Therapeutics, Vol. 32, No. 2 (1973). The procedural details and results observed in the experiments reported here are as follows.
(§1) Polyarthritis is induced in male CD rats (150-170 g) as follows. Heat-killed Mycobacterium butyricum (0.1 ml of a […] 5 mg/ml adjuvant suspension in light mineral oil) is injected subcutaneously into the plantar surface of the right hind foot of each animal. At least 10 rats are used in each test group. Animals are dosed orally with one of the compounds under assay immediately after adjuvant injection, and once daily for a total of 14 days. Untreated normal and arthritic control groups are used as comparison for test compound effect. Foot volumes are measured 24 hours after the final dose by mercury displacement to the lateral malleolus. Mean displacement volumes and their standard errors are calculated for the non-injected hind paws.
The results are expressed as the percent of the mean displacement volume of the control observed in animals treated with the specified compound at the indicated daily dosage level and are as set forth in Table 1: […]

[2] = test system: Rats in which polyarthritis has become established; assay: Adjuvant-Induced Established Arthritis Assay; assay type: in vivo, rat; details: days 14-27, non-injected paw volume
Procedure: as §1
This assay is used to determine the ability of compounds to affect an established chronic inflammatory condition.
Polyarthritis is induced as described in Example 8. Rats in which polyarthritis has become established are selected 14 days after receiving the adjuvant suspension. They are treated daily with oral doses of test compound for 14 days (days 14-27). Foot volumes of the non-injected paws are measured as in 8, 24 hours after the final dose. Untreated arthritic control groups are used as comparison for test compound effect as described in Example 8.

Row | Compound | inhibition in vivo at 25 mg/kg [1] [%] | further results
1 | Cc1ccc2[nH]c(S(=O)(=O)CC(F)(F)F)nc2c1 [Example 1, 5-Methyl-2-(2,2,2-trifluoroethylsulfonyl)-1H-benzimidazole] | 52 | inhibition in vivo at 50 mg/kg [1]: 72%; % Inhibition ([2]; 50 mg/kg orally daily): 30%; % Inhibition ([2]; 75 mg/kg orally daily): 42%; % Inhibition ([2]; 100 mg/kg orally daily): 60%
2 | O=S(=O)(CC(F)(F)F)c1nc2cc(Cl)ccc2[nH]1 [Example 2, 5-Chloro-2-(2,2,2-trifluoroethylsulfonyl)-1H-benzimidozole] | 28 | 
3 | O=S(=O)(CC(F)(F)F)c1nc2cc(Cl)c(Cl)cc2[nH]1 [Example 3, 5,6-Dichloro-2-(2,2,2-trifluoroethylsulfonyl)-1H-benzimidazole] | 24 | 
4 | O=S(=O)(CC(F)(F)F)c1nc2ccccc2[nH]1 [Example 4, 2-(2,2,2-Trifluoroethylsulfonyl)-1H-benzimidazole] | 52 | % Inhibition ([2]; 50 mg/kg orally daily): 45%
5 | O=S(=O)(CC(F)(F)F)c1nc2cc(F)ccc2[nH]1 [Example 5, 5-Fluoro-2-(2,2,2-trifluoroethylsulfonyl)-1H-benzimidazole] | 43 | 
6 | Cc1cc2nc(S(=O)(=O)CC(F)(F)F)[nH]c2cc1C [Example 6, 5,6-Dimethyl-2-(2,2,2-trifluoroethylsulfonyl)-1H-benzimidazole] | 18 | 
7 | CCc1ccc2[nH]c(S(=O)(=O)CC(F)(F)F)nc2c1 [Example 7, 5-Ethyl-2-(2,2,2-trifluoroethylsulfonyl)-1H-benzimidazole] | 34 | 
8 | Cc1cc2nc(S(=O)(=O)CC(F)(F)F)[nH]c2cc1F [Example 8, 6-Fluoro-5-methYl-2-(2,2,2-trifluoroethylsulfonyl)-1H-benzimidazole] |  | inhibition in vivo at 50 mg/kg [1]: 64%
